# Measured values published in patent publication US20230117034A1, “PYRAZOLOTRIAZINES” (Bayer Aktiengesellschaft, priority 2019, published 2023).
# Columns and labels:
# [1] = molecular target: T1, CDK12 (nuclear staining in CAL-120 cells) (Homo sapiens, UniProt Q9NYV4); test: CDK12 nuclear protein level: immunofluorescence/high content analysis (CAL-120); assay type: cell-based; settings: for DC50: CAL-120 cells, 24 h, immunofluorescence, 50% reduction of nuclear CDK12 staining intensity, median, read-out: CDK12 degradation IF, DC50- [mol/l] (median); for (IC50 CDK12 high ATP) to (Degradation DC50 CDK12) ratio: ratio of IC50 CDK12 high ATP kinase assay to DC50 CDK12 degradation (IF, CAL-120)
# T1 construct: endogenous in cells; host or cells: CAL-120 human breast cancer cells (DSMZ ACC 459)
# Summary of the method: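 DC50 is the degrader concentration that halves nuclear CDK12 immunofluorescence relative to controls, measured by high-content imaging. CAL-120 cells were exposed to compound for 24 h at 37 °C before PFA fixation, and signal was normalized to DMSO and control wells.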
# CDK2/CycE = molecular target: T2, CDK2/CycE (Homo sapiens, UniProt P24941); test: CDK2/CycE kinase assay (TR-FRET, 2 mM ATP); assay type: biochemical; settings: 2 mM ATP (high ATP); median; read-out: CDK2/CyclinE, 2 mM ATP (high ATP), IC50 (median)
# T2 construct: purchased ProQinase GmbH (Freiburg, Germany); host or cells: insect cells (Sf9)
# Summary of the method: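 Biotin-peptide phosphorylation (0.75 µM substrate, 2 mM ATP final, 25 min, 22 °C) by Sf9-expressed GST-CDK2/GST-CycE, after a 15-min compound pre-binding step. Inhibition scaled between enzyme-free (100%) and uninhibited (0%) wells.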
# CDK9/CycT1 = molecular target: T3, CDK9/CycT1 (Homo sapiens, UniProt P50750); test: CDK9/CycT1 high ATP kinase assay (TR-FRET, 2 mM ATP); assay type: biochemical; settings: 2 mM ATP (high ATP); median; read-out: CDK9/CyclinT1, 2 mM ATP (high ATP), IC50 (median)
# T3 construct: Recombinant full-length His-tagged human CDK9 and CycT1; purchased Life Technologies PV4131; host or cells: insect cells
# Summary of the method: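 Full-length His-tagged human CDK9/CycT1 (insect cell, ~0.5 μg/mL) preincubated 15 min at 22 °C with compound in Tris pH 8.0, MgCl2, DTT buffer before reaction with biotinylated peptide substrate at high ATP (2 mM).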
# T1 sequence (Q9NYV4 whole entry): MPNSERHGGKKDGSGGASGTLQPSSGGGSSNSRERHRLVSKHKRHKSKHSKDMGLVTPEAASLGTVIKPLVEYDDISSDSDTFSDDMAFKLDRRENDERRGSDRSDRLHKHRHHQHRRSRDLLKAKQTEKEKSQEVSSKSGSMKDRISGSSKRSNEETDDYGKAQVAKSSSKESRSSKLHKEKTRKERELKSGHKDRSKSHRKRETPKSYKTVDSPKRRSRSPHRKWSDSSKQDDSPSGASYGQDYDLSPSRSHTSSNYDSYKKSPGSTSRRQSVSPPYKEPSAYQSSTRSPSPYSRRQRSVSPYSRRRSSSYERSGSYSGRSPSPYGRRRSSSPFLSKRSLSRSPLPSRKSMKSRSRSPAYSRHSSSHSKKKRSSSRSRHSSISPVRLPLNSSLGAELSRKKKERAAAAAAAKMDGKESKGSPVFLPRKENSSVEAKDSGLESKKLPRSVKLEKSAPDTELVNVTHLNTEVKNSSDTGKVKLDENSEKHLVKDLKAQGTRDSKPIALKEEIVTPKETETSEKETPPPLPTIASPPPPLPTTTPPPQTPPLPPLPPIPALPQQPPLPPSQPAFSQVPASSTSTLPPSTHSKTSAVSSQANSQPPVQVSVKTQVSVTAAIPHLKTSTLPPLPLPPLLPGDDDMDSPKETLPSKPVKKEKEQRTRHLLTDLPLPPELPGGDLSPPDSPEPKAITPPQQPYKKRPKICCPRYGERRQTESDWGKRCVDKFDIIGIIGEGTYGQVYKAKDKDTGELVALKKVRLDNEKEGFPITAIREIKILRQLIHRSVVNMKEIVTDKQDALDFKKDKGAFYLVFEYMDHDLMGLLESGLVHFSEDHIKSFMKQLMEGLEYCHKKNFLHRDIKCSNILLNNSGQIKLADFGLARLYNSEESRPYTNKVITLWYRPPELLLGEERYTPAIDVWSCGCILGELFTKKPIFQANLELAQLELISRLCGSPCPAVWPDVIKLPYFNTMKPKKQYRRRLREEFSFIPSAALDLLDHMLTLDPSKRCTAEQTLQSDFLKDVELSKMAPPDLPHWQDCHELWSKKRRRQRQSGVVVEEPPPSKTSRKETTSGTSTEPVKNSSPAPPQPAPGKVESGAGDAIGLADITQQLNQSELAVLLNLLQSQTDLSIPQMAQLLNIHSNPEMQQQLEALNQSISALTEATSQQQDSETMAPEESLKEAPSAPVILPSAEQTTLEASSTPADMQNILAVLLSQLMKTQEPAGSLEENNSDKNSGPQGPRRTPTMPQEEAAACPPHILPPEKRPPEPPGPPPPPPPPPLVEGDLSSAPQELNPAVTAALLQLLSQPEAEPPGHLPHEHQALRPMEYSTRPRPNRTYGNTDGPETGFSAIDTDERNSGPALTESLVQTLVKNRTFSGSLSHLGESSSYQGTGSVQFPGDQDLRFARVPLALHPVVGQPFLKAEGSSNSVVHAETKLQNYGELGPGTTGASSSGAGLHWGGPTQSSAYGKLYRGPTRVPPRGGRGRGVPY
# T1 sequence (O75909 whole entry partner): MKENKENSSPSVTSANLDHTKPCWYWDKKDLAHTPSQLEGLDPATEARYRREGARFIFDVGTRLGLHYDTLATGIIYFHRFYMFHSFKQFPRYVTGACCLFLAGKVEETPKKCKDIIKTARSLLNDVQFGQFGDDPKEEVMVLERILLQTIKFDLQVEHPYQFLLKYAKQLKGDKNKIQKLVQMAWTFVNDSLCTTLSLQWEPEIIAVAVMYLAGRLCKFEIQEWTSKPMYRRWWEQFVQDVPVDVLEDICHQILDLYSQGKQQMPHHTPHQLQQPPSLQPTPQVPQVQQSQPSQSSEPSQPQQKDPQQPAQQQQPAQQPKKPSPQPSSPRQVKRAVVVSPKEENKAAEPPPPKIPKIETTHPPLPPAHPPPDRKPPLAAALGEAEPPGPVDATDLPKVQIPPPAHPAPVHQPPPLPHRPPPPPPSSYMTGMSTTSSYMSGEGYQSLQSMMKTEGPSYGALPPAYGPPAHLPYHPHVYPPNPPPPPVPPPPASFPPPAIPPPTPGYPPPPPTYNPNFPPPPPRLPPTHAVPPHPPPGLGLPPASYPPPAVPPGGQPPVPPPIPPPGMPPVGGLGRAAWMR
# T3 sequence (P50750 whole entry): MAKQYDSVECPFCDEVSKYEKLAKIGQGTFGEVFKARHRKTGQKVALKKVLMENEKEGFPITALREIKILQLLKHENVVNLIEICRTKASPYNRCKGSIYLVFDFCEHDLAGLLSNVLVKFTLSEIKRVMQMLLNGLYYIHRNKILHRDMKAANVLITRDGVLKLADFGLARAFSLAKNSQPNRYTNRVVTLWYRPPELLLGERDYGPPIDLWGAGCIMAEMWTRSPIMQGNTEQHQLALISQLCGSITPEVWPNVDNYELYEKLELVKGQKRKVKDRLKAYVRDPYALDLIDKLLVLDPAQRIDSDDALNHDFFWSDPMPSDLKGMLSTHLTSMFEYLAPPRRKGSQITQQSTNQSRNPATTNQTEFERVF
# T3 sequence (O60563 whole entry partner): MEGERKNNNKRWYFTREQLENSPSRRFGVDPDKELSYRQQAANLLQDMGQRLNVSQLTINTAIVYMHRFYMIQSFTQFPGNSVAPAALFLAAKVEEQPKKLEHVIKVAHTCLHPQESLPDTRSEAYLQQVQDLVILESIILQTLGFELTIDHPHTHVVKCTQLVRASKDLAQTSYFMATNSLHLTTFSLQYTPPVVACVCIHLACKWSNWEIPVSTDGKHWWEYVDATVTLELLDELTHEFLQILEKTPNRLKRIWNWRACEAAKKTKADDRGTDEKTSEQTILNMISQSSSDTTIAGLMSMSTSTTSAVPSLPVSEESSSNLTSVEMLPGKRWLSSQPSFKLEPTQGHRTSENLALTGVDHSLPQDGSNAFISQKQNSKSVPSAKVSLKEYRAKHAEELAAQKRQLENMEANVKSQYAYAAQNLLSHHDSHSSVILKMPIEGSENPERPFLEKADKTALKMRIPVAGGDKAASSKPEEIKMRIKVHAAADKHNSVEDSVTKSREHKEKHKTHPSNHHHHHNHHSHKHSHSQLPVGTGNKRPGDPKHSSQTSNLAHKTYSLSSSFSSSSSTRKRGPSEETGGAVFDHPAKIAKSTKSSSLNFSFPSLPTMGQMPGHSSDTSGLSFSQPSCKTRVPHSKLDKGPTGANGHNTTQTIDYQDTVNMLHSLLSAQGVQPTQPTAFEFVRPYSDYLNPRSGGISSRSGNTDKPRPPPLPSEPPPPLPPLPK
DC50 [1] [nM],(IC50 CDK12 high ATP) to (Degradation DC50 CDK12) ratio [1],IC50 (CDK2/CycE) [nM],IC50 (CDK9/CycT1) [nM],Compound
44.8,>446,16300,> 20000,"Brc1cnn2c(NCc3nc4ccccc4[nH]3)nc(OC3CCNCC3)nc12 [Example 411, N-[(1H-benzimidazol-2-yl)methyl]-8-bromo-2-[(piperidin-4-yl)oxy]pyrazolo[1,5-a][1,3,5]triazin-4-amine]"
28.1,>623,17200,> 20000,"Cc1cnn2c(NCc3nc4ccccc4[nH]3)nc(N(C)CC(C)(C)O)nc12 [Example 397, 1-[(4-{[(1H-benzimidazol-2-yl)methyl]amino}-8-methylpyrazolo[1,5-a][1,3,5]triazin-2-yl)(methyl)amino]-2-methylpropan-2-ol]"
37.8,150,1890,6240,"Brc1cnn2c(NCc3nnc(-c4ccccn4)[nH]3)nc(N3CCOCC3)nc12 [Example 54, 8-bromo-2-(morpholin-4-yl)-N-{[5-(pyridin-2-yl)-4H-1,2,4-triazol-3-yl]methyl}pyrazolo[1,5-a][1,3,5]triazin-4-amine]"
5.26,104,1050,10700,"OC[C@@H]1CCCCN1c1nc(NCc2nc3ccccc3[nH]2)n2ncc(Br)c2n1 [Example 59, [(2S)-1-(4-{[(1H-benzimidazol-2-yl)methyl]amino}-8-bromopyrazolo[1,5-a][1,3,5]triazin-2-yl)piperidin-2-yl]methanol]"
1.19,1336,10000,> 20000,"Fc1cccc2[nH]c(CNc3nc(N4CCN5CCC4CC5)nc4c(C(F)(F)F)cnn34)nc12 [Example 410, 2-(1,4-diazabicyclo[3.2.2]nonan-4-yl)-N-[(4-fluoro-1H-benzimidazol-2-yl)methyl]-8-(trifluoromethyl)pyrazolo[1,5-a][1,3,5]triazin-4-amine]"
9.25,202,738,7340,"OC[C@H]1CCCCN1c1nc(NCc2nc3ccccc3[nH]2)n2ncc(Br)c2n1 [Example 60, [(2R)-1-(4-{[(1H-benzimidazol-2-yl)methyl]amino}-8-bromopyrazolo[1,5-a][1,3,5]triazin-2-yl)piperidin-2-yl]methanol]"
43.1,>464,> 20000,> 20000,"COC(C)(C)COc1nc(NCc2nc3ccccc3[nH]2)n2ncc(Br)c2n1 [Example 403, N-[(1H-benzimidazol-2-yl)methyl]-8-bromo-2-(2-methoxy-2-methylpropoxy)pyrazolo[1,5-a][1,3,5]triazin-4-amine]"
6.18,676,> 20000,> 20000,"O=C(O)C(F)(F)F.c1ccc2[nH]c(CNc3nc(N4CCOCC4)nc4c(-c5cncs5)cnn34)nc2c1 [Example 441, trifluoroacetic acid-N-[(1H-benzimidazol-2-yl)methyl]-2-(morpholin-4-yl)-8-(1,3-thiazol-5-yl)pyrazolo[1,5-a][1,3,5]triazin-4-amine (1/1)]"
66.2,221,10400,> 20000,"CC(C)(O)COc1nc(NCc2nc3ccccc3[nH]2)n2ncc(Br)c2n1 [Example 398, 1-[(4-{[(1H-benzimidazol-2-yl)methyl]amino}-8-bromopyrazolo[1,5-a][1,3,5]triazin-2-yl)oxy]-2-methylpropan-2-ol]"
1.55,669,1220,6670,"C[C@H]1COCCN1c1nc(NCc2nc3ccccc3[nH]2)n2ncc(Br)c2n1 [Example 57, N-[(1H-benzimidazol-2-yl)methyl]-8-bromo-2-[(3S)-3-methylmorpholin-4-yl]pyrazolo[1,5-a][1,3,5]triazin-4-amine]"
19.4,>1031,13900,> 20000,"Cc1cnn2c(NCc3nc4ccccc4[nH]3)nc(N3CCN(C)CC3)nc12 [Example 396, N-[(1H-benzimidazol-2-yl)methyl]-8-methyl-2-(4-methylpiperazin-1-yl)pyrazolo[1,5-a][1,3,5]triazin-4-amine]"

# Continued, compound first:
Compound,DC50 [1] [nM],(IC50 CDK12 high ATP) to (Degradation DC50 CDK12) ratio [1],IC50 (CDK2/CycE) [nM],IC50 (CDK9/CycT1) [nM]
"Cc1cnn2c(NCc3nc4c(F)c(F)ccc4[nH]3)nc(N3CCN(C)CC3)nc12 [Example 394, N-[(4,5-difluoro-1H-benzimidazol-2-yl)methyl]-8-methyl-2-(4-methylpiperazin-1-yl)pyrazolo[1,5-a][1,3,5]triazin-4-amine]",5.65,>3303,> 20000,> 20000
"Fc1ccc2[nH]c(CNc3nc(N4CCOCC4)nc4c(CC(F)F)cnn34)nc2c1F.O=C(O)C(F)(F)F [Example 425, trifluoroacetic acid N-[(4,5-difluoro-1H-benzimidazol-2-yl)methyl]-8-(2,2-difluoroethyl)-2-(morpholin-4-yl)pyrazolo[1,5-a][1,3,5]triazin-4-amine]",2.51,852,> 20000,> 20000
"CCc1cnn2c(NCc3nc4c(F)c(F)ccc4[nH]3)nc(N3CCOCC3)nc12 [Example 432, N-[(4,5-difluoro-1H-benzimidazol-2-yl)methyl]-8-ethyl-2-(morpholin-4-yl)pyrazolo[1,5-a][1,3,5]triazin-4-amine]",0.948,2425,7570,15700
"Brc1cnn2c(NCc3nnc(-c4cccnc4)[nH]3)nc(N3CCOCC3)nc12 [Example 53, 8-bromo-2-(morpholin-4-yl)-N-{[5-(pyridin-3-yl)-4H-1,2,4-triazol-3-yl]methyl}pyrazolo[1,5-a][1,3,5]triazin-4-amine]",47.2,43,1680,1290
"CC(C)c1cnn2c(NCc3nnc(-c4ccccc4)[nH]3)nc(N(C)CC(C)(C)O)nc12 [Example 39, 2-methyl-1-{methyl[4-{[(5-phenyl-4H-1,2,4-triazol-3-yl)methyl]amino}-8-(propan-2-yl)pyrazolo[1,5-a][1,3,5]triazin-2-yl]amino}propan-2-ol]",41.4,113,2110,4910
"Fc1ccc2[nH]c(CNc3nc(N4CCN5CCC4CC5)nc4c(C(F)(F)F)cnn34)nc2c1F [Example 407, 2-(1,4-diazabicyclo[3.2.2]nonan-4-yl)-N-[(4,5-difluoro-1H-benzimidazol-2-yl)methyl]-8-(trifluoromethyl)pyrazolo[1,5-a][1,3,5]triazin-4-amine]",2.31,306,> 20000,> 20000
"Fc1ccc2[nH]c(CNc3nc(N4CCOCC4)nc4c(-c5nccs5)cnn34)nc2c1F [Example 413, N-[(4,5-difluoro-1H-benzimidazol-2-yl)methyl]-2-(morpholin-4-yl)-8-(1,3-thiazol-2-yl)pyrazolo [1,5-a][1,3,5]triazin-4-amine]",19.8,>1012,> 20000,> 20000
"Fc1ccc2[nH]c(CNc3nc(N4CCOCC4)nc4c(-c5cncs5)cnn34)nc2c1F.O=C(O)C(F)(F)F [Example 442, trifluoroacetic acid N-[(4,5-difluoro-1H-benzimidazol-2-yl)methyl]-2-(morpholin-4-yl)-8-(1,3-thiazol-5-yl)pyrazolo[1,5-a][1,3,5]triazin-4-amine]",4.68,125,> 20000,> 20000
"CN1CCN(c2nc(NCc3nc4c(F)c(F)ccc4[nH]3)n3ncc(CC(F)(F)F)c3n2)CC1 [Example 437, N-[(4,5-difluoro-1H-benzimidazol-2-yl)methyl]-2-(4-methylpiperazin-1-yl)-8-(2,2,2-trifluoroethyl) pyrazolo[1,5-a][1,3,5]triazin-4-amine]",1.76,>11369,> 20000,> 20000
